Laboratory results published in PubChem BioAssay AID2060325 (Molecular Pharmacology Branch, DTP, NCI, 2025).

Test system: SK-OV-3 multi-cell spheroids, viability
Assay: Anticancer human tumor SK-OV-3 cell line growth inhibition [IpAb];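 as to viability, T/C: viability read after seven days of drug exposure; percent of DMSO vehicle control luminescence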
Conditions: for IC50: curve of first compound; for viability, T/C: stronger effect = lower value; active = viability on the fitted dose curve at most 10% of control; inactive = the rest
Procedure, shortened: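 Combinations with ipatasertib or abemaciclib were tested on tumour spheroids holding HUVEC (25%) and MSC (15%) alongside 60% malignant cells. Top concentration was at or near clinical Cmax (10 microM if undefined), descending in half-log steps.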

[1] = second compound 0.01 µM, first compound 0.0316 µM
[2] = second compound 0.01 µM, first compound 0.1 µM
[3] = second compound 0.01 µM, first compound 0.316 µM
[4] = second compound 0.01 µM, first compound 1 µM
[5] = second compound 0.01 µM, first compound 3.16 µM
[6] = second compound 0.01 µM, first compound 10 µM
[7] = second compound 0.0316 µM, first compound 0.0316 µM
[8] = second compound 0.0316 µM, first compound 0.1 µM
[9] = second compound 0.0316 µM, first compound 0.316 µM
[10] = second compound 0.0316 µM, first compound 1 µM
[11] = second compound 0.0316 µM, first compound 3.16 µM
[12] = second compound 0.0316 µM, first compound 10 µM
[13] = second compound 0.1 µM, first compound 0.0316 µM
[14] = second compound 0.1 µM, first compound 0.1 µM
[15] = second compound 0.1 µM, first compound 0.316 µM
[16] = second compound 0.1 µM, first compound 1 µM
[17] = second compound 0.1 µM, first compound 3.16 µM
[18] = second compound 0.1 µM, first compound 10 µM
[19] = second compound 0.316 µM, first compound 0.0316 µM
[20] = second compound 0.316 µM, first compound 0.1 µM
[21] = second compound 0.316 µM, first compound 0.316 µM
[22] = second compound 0.316 µM, first compound 1 µM
[23] = second compound 0.316 µM, first compound 3.16 µM
[24] = second compound 0.316 µM, first compound 10 µM
[25] = second compound 1 µM, first compound 0.0316 µM
[26] = second compound 1 µM, first compound 0.1 µM
[27] = second compound 1 µM, first compound 0.316 µM
[28] = second compound 1 µM, first compound 1 µM
[29] = second compound 1 µM, first compound 3.16 µM
[30] = second compound 1 µM, first compound 10 µM

C=CCn1c(=O)c2cnc(Nc3ccc(N4CCN(C)CC4)cc3)nc2n1-c1cccc(C(C)(C)O)n1 + CCN1CCN(Cc2ccc(Nc3ncc(F)c(-c4cc(F)c5nc(C)n(C(C)C)c5c4)n3)nc2)CC1
< 0.0316 µM: IC50 (second compound 0.1 µM) | IC50 (second compound 1 µM)
0.0393 µM: IC50 (second compound 0.316 µM)
active: viability, T/C [4] 7.77% | viability, T/C [5] 4.03% | viability, T/C [6] 6.24% | viability, T/C [10] 8.26% | viability, T/C [11] 6.84% | viability, T/C [12] 6.66% | viability, T/C [16] 9.93% | viability, T/C [17] 5.86% | viability, T/C [18] 8.17%
0.09 µM: IC50 (second compound 0.01 µM)
0.0559 µM: IC50 (second compound 0.0316 µM)
inactive: viability, T/C [1] 83.9% | viability, T/C [2] 46.6% | viability, T/C [3] 13.1% | viability, T/C [7] 63.7% | viability, T/C [8] 36% | viability, T/C [9] 12.1% | viability, T/C [13] 49.2% | viability, T/C [14] 36.3% | viability, T/C [15] 14.4% | viability, T/C [19] 53.5% | viability, T/C [20] 34.8% | viability, T/C [21] 17.9% | viability, T/C [22] 15% | viability, T/C [23] 10.3% | viability, T/C [24] 10.5% | viability, T/C [25] 36.4% | viability, T/C [26] 29.3% | viability, T/C [27] 19.7% | viability, T/C [28] 16.9% | viability, T/C [29] 17.4% | viability, T/C [30] 15.6%

CC(C)n1nc(-c2ccc3oc(N)nc3c2)c2c(N)ncnc21 + CCN1CCN(Cc2ccc(Nc3ncc(F)c(-c4cc(F)c5nc(C)n(C(C)C)c5c4)n3)nc2)CC1
< 0.000316 µM: IC50 (second compound 1 µM)
active: viability, T/C [2] 7.65% | viability, T/C [7] 11.6% | viability, T/C [8] 7.01% | viability, T/C [13] 10.8% | viability, T/C [14] 7.2% | viability, T/C [20] 9.24%
0.00123 µM: IC50 (second compound 0.0316 µM)
0.00165 µM: IC50 (second compound 0.01 µM)
0.000577 µM: IC50 (second compound 0.1 µM)
inactive: viability, T/C (second compound 0.01 µM, first compound 0.000316 µM) 76.7% | viability, T/C (second compound 0.01 µM, first compound 0.001 µM) 59.3% | viability, T/C (second compound 0.01 µM, first compound 0.00316 µM) 37.8% | viability, T/C (second compound 0.01 µM, first compound 0.01 µM) 19% | viability, T/C [1] 8.77% | viability, T/C (second compound 0.0316 µM, first compound 0.000316 µM) 64.4% | viability, T/C (second compound 0.0316 µM, first compound 0.001 µM) 54.8% | viability, T/C (second compound 0.0316 µM, first compound 0.00316 µM) 31.3% | viability, T/C (second compound 0.0316 µM, first compound 0.01 µM) 16.1% | viability, T/C (second compound 0.1 µM, first compound 0.000316 µM) 55.4% | viability, T/C (second compound 0.1 µM, first compound 0.001 µM) 45.4% | viability, T/C (second compound 0.1 µM, first compound 0.00316 µM) 28.1% | viability, T/C (second compound 0.1 µM, first compound 0.01 µM) 16% | viability, T/C (second compound 0.316 µM, first compound 0.000316 µM) 51.5% | viability, T/C (second compound 0.316 µM, first compound 0.001 µM) 41.4% | viability, T/C (second compound 0.316 µM, first compound 0.00316 µM) 26.2% | viability, T/C (second compound 0.316 µM, first compound 0.01 µM) 18.1% | viability, T/C [19] 14.3% | viability, T/C (second compound 1 µM, first compound 0.000316 µM) 40.7% | viability, T/C (second compound 1 µM, first compound 0.001 µM) 34.2% | viability, T/C (second compound 1 µM, first compound 0.00316 µM) 27.9% | viability, T/C (second compound 1 µM, first compound 0.01 µM) 21.2% | viability, T/C [25] 15.9% | viability, T/C [26] 13.2%
0.000381 µM: IC50 (second compound 0.316 µM)

CC1(C)CCC(CN2CCN(c3ccc(C(=O)NS(=O)(=O)c4ccc(NCC5CCOCC5)c([N+](=O)[O-])c4)c(Oc4cnc5[nH]ccc5c4)c3)CC2)=C(c2ccc(Cl)cc2)C1 + CCN1CCN(Cc2ccc(Nc3ncc(F)c(-c4cc(F)c5nc(C)n(C(C)C)c5c4)n3)nc2)CC1
0.722 µM: IC50 (second compound 0.1 µM)
2.54 µM: IC50 (second compound 0.01 µM)
0.316 µM: IC50 (second compound 0.316 µM)
inactive: viability, T/C [1] 92.7% | viability, T/C [2] 96.9% | viability, T/C [3] 90% | viability, T/C [4] 71.8% | viability, T/C [5] 45.3% | viability, T/C [6] 18.2% | viability, T/C [7] 78.7% | viability, T/C [8] 74.3% | viability, T/C [9] 79.6% | viability, T/C [10] 68.5% | viability, T/C [11] 44.7% | viability, T/C [12] 17.9% | viability, T/C [13] 60.7% | viability, T/C [14] 59.2% | viability, T/C [15] 55.2% | viability, T/C [16] 48% | viability, T/C [17] 34.4% | viability, T/C [18] 14.3% | viability, T/C [19] 55.8% | viability, T/C [20] 53.5% | viability, T/C [21] 52.7% | viability, T/C [22] 39.9% | viability, T/C [23] 31.5% | viability, T/C [24] 10.4% | viability, T/C [25] 44.5% | viability, T/C [26] 47.3% | viability, T/C [27] 42.3% | viability, T/C [28] 38.3% | viability, T/C [29] 31.9% | viability, T/C [30] 12.9%
< 0.0316 µM: IC50 (second compound 1 µM)
2.45 µM: IC50 (second compound 0.0316 µM)

CCCS(=O)(=O)Nc1ccc(F)c(C(=O)c2c[nH]c3ncc(-c4ccc(Cl)cc4)cc23)c1F + CCN1CCN(Cc2ccc(Nc3ncc(F)c(-c4cc(F)c5nc(C)n(C(C)C)c5c4)n3)nc2)CC1
inactive: viability, T/C [1] 95.1% | viability, T/C [2] 93.5% | viability, T/C [3] 89.1% | viability, T/C [4] 85.5% | viability, T/C [5] 80.3% | viability, T/C [6] 48% | viability, T/C [7] 70.1% | viability, T/C [8] 69.7% | viability, T/C [9] 70.3% | viability, T/C [10] 68.1% | viability, T/C [11] 65.3% | viability, T/C [12] 29.3% | viability, T/C [13] 55.3% | viability, T/C [14] 59.5% | viability, T/C [15] 57.4% | viability, T/C [16] 51.7% | viability, T/C [17] 39.6% | viability, T/C [18] 20.1% | viability, T/C [19] 53.2% | viability, T/C [20] 55.7% | viability, T/C [21] 52.9% | viability, T/C [22] 46.5% | viability, T/C [23] 44.1% | viability, T/C [24] 25.4% | viability, T/C [25] 41.2% | viability, T/C [26] 44.4% | viability, T/C [27] 48.1% | viability, T/C [28] 38.6% | viability, T/C [29] 36.8% | viability, T/C [30] 24.2%
9.39 µM: IC50 (second compound 0.01 µM)
1.24 µM: IC50 (second compound 0.1 µM)
5.14 µM: IC50 (second compound 0.0316 µM)
< 0.0316 µM: IC50 (second compound 1 µM)
0.822 µM: IC50 (second compound 0.316 µM)

Cn1cnc2c(F)c(Nc3ccc(Br)cc3Cl)c(C(=O)NOCCO)cc21 + CCN1CCN(Cc2ccc(Nc3ncc(F)c(-c4cc(F)c5nc(C)n(C(C)C)c5c4)n3)nc2)CC1
0.39 µM: IC50 (second compound 0.1 µM)
inactive: viability, T/C (second compound 0.01 µM, first compound 0.00949 µM) 90.9% | viability, T/C (second compound 0.01 µM, first compound 0.03 µM) 95.4% | viability, T/C (second compound 0.01 µM, first compound 0.0949 µM) 98% | viability, T/C (second compound 0.01 µM, first compound 0.3 µM) 96% | viability, T/C (second compound 0.01 µM, first compound 0.949 µM) 65.5% | viability, T/C (second compound 0.01 µM, first compound 3 µM) 33.9% | viability, T/C (second compound 0.0316 µM, first compound 0.00949 µM) 80.6% | viability, T/C (second compound 0.0316 µM, first compound 0.03 µM) 79.5% | viability, T/C (second compound 0.0316 µM, first compound 0.0949 µM) 84.1% | viability, T/C (second compound 0.0316 µM, first compound 0.3 µM) 75.1% | viability, T/C (second compound 0.0316 µM, first compound 0.949 µM) 55.5% | viability, T/C (second compound 0.0316 µM, first compound 3 µM) 27.1% | viability, T/C (second compound 0.1 µM, first compound 0.00949 µM) 59.8% | viability, T/C (second compound 0.1 µM, first compound 0.03 µM) 59.1% | viability, T/C (second compound 0.1 µM, first compound 0.0949 µM) 66.8% | viability, T/C (second compound 0.1 µM, first compound 0.3 µM) 51.2% | viability, T/C (second compound 0.1 µM, first compound 0.949 µM) 38.6% | viability, T/C (second compound 0.1 µM, first compound 3 µM) 28.2% | viability, T/C (second compound 0.316 µM, first compound 0.00949 µM) 61.7% | viability, T/C (second compound 0.316 µM, first compound 0.03 µM) 63.7% | viability, T/C (second compound 0.316 µM, first compound 0.0949 µM) 49.1% | viability, T/C (second compound 0.316 µM, first compound 0.3 µM) 47.4% | viability, T/C (second compound 0.316 µM, first compound 0.949 µM) 38.8% | viability, T/C (second compound 0.316 µM, first compound 3 µM) 28.4% | viability, T/C (second compound 1 µM, first compound 0.00949 µM) 41.8% | viability, T/C (second compound 1 µM, first compound 0.03 µM) 50.6% | viability, T/C (second compound 1 µM, first compound 0.0949 µM) 50.8% | viability, T/C (second compound 1 µM, first compound 0.3 µM) 44.6% | viability, T/C (second compound 1 µM, first compound 0.949 µM) 35.9% | viability, T/C (second compound 1 µM, first compound 3 µM) 24.2%
1.67 µM: IC50 (second compound 0.01 µM)
1.18 µM: IC50 (second compound 0.0316 µM)
< 0.00949 µM: IC50 (second compound 1 µM)
0.167 µM: IC50 (second compound 0.316 µM)
